# Experimental data: patent US20090054435A1, “Phenoxyalkanoic Acid Compound” (priority 2005, published 2009)
row,Compound,melting point [°C]
1,"COc1ccc(C(=O)c2cccc(OCc3nc(-c4ccccc4)oc3C)c2)c(OCCOC(C)=O)c1 [Example 2, (5-methoxy-2-{3-[(5-methyl-2-phenyl-1,3-oxazol-4-yl)methoxy]benzoyl}phenoxy)ethyl acetate]",90 to 91
2,"COc1ccc(C(=O)c2cccc(OCc3nc(-c4ccccc4)oc3C)c2)c(OCC(=O)O)c1 [Example 4, (5-methoxy-2-{3-[(5-methyl-2-phenyl-1,3-oxazol-4-yl)methoxy]benzoyl}phenoxy)acetic acid]",198 to 199
3,"COc1ccc(C(C)(O)c2cccc(OCc3nc(-c4ccccc4)oc3C)c2)c(OCCOC(C)=O)c1 (stereo not drawn) [Example 5, [2-(1-hydroxy-1-{3-[(5-methyl-2-phenyl-1,3-oxazol-4-yl)methoxy]phenyl}ethyl)-5-methoxyphenoxy]ethyl acetate]",144 to 145
4,"COc1ccc(C(C)(O)c2cccc(OCc3nc(-c4ccccc4)oc3C)c2)c(OCC(=O)O)c1 (stereo not drawn) [Example 6, [2-(1-hydroxy-1-{3-[(5-methyl-2-phenyl-1,3-oxazol-4-yl)methoxy]phenyl}ethyl)-5-methoxyphenoxy]acetic acid]",148 to 149
5,"CCOC(c1cccc(OCc2nc(-c3ccccc3)oc2C)c1)c1ccc(OC)cc1OCC(=O)O (stereo not drawn) [Example 7, [2-(ethoxy{3-[(5-methyl-2-phenyl-1,3-oxazol-4-yl)methoxy]phenyl}methyl)-5-methoxyphenoxy]acetic acid]",129 to 130
6,"Cc1oc(-c2ccccc2)nc1COc1ccc(C(=O)c2ccccc2OCC(=O)O)cc1 [Example 8, (2-{4-[(5-methyl-2-phenyl-1,3-oxazol-4-yl)methoxy]benzoyl}phenoxy)acetic acid]",174 to 175
7,"Cc1oc(-c2ccccc2)nc1COc1ccc(C(=O)c2ccc(O)cc2OCC(=O)O)cc1 [Example 11, (5-hydroxy-2-{4-[(5-methyl-2-phenyl-1,3-oxazol-4-yl)methoxy]benzoyl}phenoxy)acetic acid]",229 to 230
8,"CCOC(=O)COc1cc(O)ccc1C(=O)c1ccc(OCc2nc(-c3ccccc3)oc2C)cc1 [Example 12, ethyl (5-hydroxy-2-{4-[(5-methyl-2-phenyl-1,3-oxazol-4-yl)methoxy]benzoyl}phenoxy)acetate]",184 to 186
9,"COc1ccc(C(=O)c2ccc(OCc3nc(-c4ccccc4)oc3C)cc2)c(OC(C)C(=O)O)c1 (stereo not drawn) [Example 13, 2-(5-methoxy-2-{4-[(5-methyl-2-phenyl-1,3-oxazol-4-yl)methoxy]benzoyl}phenoxy)propanoic acid]",100 to 102
10,"COc1ccc(C(=O)c2ccc(OCc3nc(-c4ccccc4)oc3C)cc2)c(OCCC(=O)O)c1 [Example 15, 3-(5-methoxy-2-{4-[(5-methyl-2-phenyl-1,3-oxazol-4-yl)methoxy]benzoyl}phenoxy)propanoic acid]",142 to 143
11,"CCC(Oc1cc(OC)ccc1C(=O)c1ccc(OCc2nc(-c3ccccc3)oc2C)cc1)C(=O)O (stereo not drawn) [Example 17, 2-(5-methoxy-2-{4-[(5-methyl-2-phenyl-1,3-oxazol-4-yl)methoxy]benzoyl}phenoxy)butanoic acid]",161 to 162
12,"COc1ccc(C(=O)c2ccc(OCc3nc(-c4ccccc4)oc3C)cc2)c(OC(C(=O)O)C(C)C)c1 (stereo not drawn) [Example 18, 2-(5-methoxy-2-{4-[(5-methyl-2-phenyl-1,3-oxazol-4-yl)methoxy]benzoyl}phenoxy)-3-methylbutanoic acid]",87 to 88
13,"COc1ccc(C(=O)c2ccc(OCc3nc(-c4ccccc4)oc3C)cc2)c(OC(F)(F)C(=O)O)c1 [Example 19, difluoro (5-methoxy-2-{4-[(5-methyl-2-phenyl-1,3-oxazol-4-yl)methoxy]benzoyl}phenoxy)acetic acid]",166 to 167
14,"CCCC(Oc1cc(OC)ccc1C(=O)c1ccc(OCc2nc(-c3ccccc3)oc2C)cc1)C(=O)O (stereo not drawn) [Example 20, 2-(5-methoxy-2-{4-[(5-methyl-2-phenyl-1,3-oxazol-4-yl)methoxy]benzoyl}phenoxy)pentanoic acid]",139 to 140
15,"COc1ccc(C(=O)c2ccc(OCc3nc(-c4ccccc4)oc3C)cc2)c(OC2(C(=O)O)CCC2)c1 [Example 23, 1-(5-methoxy-2-{4-[(5-methyl-2-phenyl-1,3-oxazol-4-yl)methoxy]benzoyl}phenoxy)cyclobutanecarboxylic acid]",199 to 201
16,"COc1ccc(C(=O)c2ccc(OCc3nc(-c4ccccc4)sc3C)cc2)c(OC(C)(C)C(=O)O)c1 [Example 29, 2-(5-methoxy-2-{4-[(5-methyl-2-phenyl-1,3-thiazol-4-yl)methoxy]benzoyl}phenoxy)-2-methylpropanoic acid]",145 to 147
17,"COc1ccc(C(=O)c2ccc(OCc3coc(-c4ccccc4)n3)cc2)c(OC(C)(C)C(=O)O)c1 [Example 32, 2-(5-methoxy-2-{4-[(2-phenyl-1,3-oxazol-4-yl)methoxy]benzoyl}phenoxy)-2-methylpropanoic acid]",165 to 167
18,"COc1ccc(C(=O)c2ccc(OCc3nc(-c4cccc(OS(C)(=O)=O)c4)oc3C)cc2)c(OC(C)(C)C(=O)O)c1 [Example 37, 2-{5-methoxy-2-[4-({5-methyl-2-[3-(methanesulfonyloxy)phenyl]-1,3-oxazol-4-yl}methoxy)benzoyl]phenoxy}-2-methylpropanoic acid]",182 to 183
19,"COc1ccc(C(=O)c2ccc(OCCc3nc(-c4ccccc4)oc3C)cc2)c(OC(C)(C)C(=O)O)c1 [Example 38, 2-(5-methoxy-2-{4-[2-(5-methyl-2-phenyl-1,3-oxazol-4-yl)ethoxy]benzoyl}phenoxy)-2-methylpropanoic acid]",81 to 82
20,"COc1ccc(O[C@H](C)C(=O)O)c(C(=O)c2ccc(OCc3nc(-c4ccccc4)oc3C)cc2)c1 [Example 39, (2R)-2-(4-methoxy-2-{4-[(5-methyl-2-phenyl-1,3-oxazol-4-yl)methoxy]benzoyl}phenoxy)propanoic acid]",119 to 120
21,"COc1ccc(C(=O)c2ccc(OCc3ccccc3)nc2)c(OC(C)(C)C(=O)OC(C)(C)C)c1 [Example 45, tert-butyl 2-(2-{[6-(benzyloxy)pyridin-3-yl]carbonyl}-5-methoxyphenoxy)-2-methylpropanoate]",58 to 60
22,"COc1ccc(C(=O)c2ccc(Oc3ccccc3)nc2)c(OC(C)(C)C(=O)O)c1 [Example 51, 2-{5-methoxy-2-[(6-phenoxypyridin-3-yl)carbonyl]phenoxy}-2-methylpropanoic acid]",167.5 to 168.5
23,"COc1ccc(C(=O)c2ccc(OCc3nc(-c4ccccc4)oc3C)nc2)c(O[C@H](C)C(=O)O)c1 [Example 54, (2R)-2-[5-methoxy-2-({6-[(5-methyl-2-phenyl-1,3-oxazol-4-yl)methoxy]pyridin-3-yl}carbonyl)phenoxy]propanoic acid]",164.5 to 165.5
24,"COc1ccc(C(=O)c2ccc(OCc3nc(-c4ccccc4)oc3C)cc2)c(O[C@@H](C)C(=O)O)c1 [Example 57, (2S)-2-(5-methoxy-2-{4-[(5-methyl-2-phenyl-1,3-oxazol-4-yl)methoxy]benzoyl}phenoxy)propanoic acid]",169 to 170
